[PMO-N] = phosphorodiamidate morpholino subunit (N: the base)
Columns and labels:
Normal MPB CD34+CD45+ = assay: Surface antigen expression after PMO treatment, normal cells; assay type: cell-based, human
Diabetic PB CD34+CD45+ = assay: Surface antigen expression after PMO treatment, diabetic cells; assay type: cell-based, human
CD34+ EPCs = assay: Modified Boyden chamber migration to SDF-1 after PMO treatment; assay type: cell-based, human; conditions: SDF-1 100 nM
murine HSCs = assay: CNV laser injury model, homing of adoptively transferred GFP+ murine HSCs; assay type: in vivo, mice; conditions: overnight pre-treatment of HSCs, vs control-PMO (p<0.05) or medium alone
[1] = test system: human peripheral blood-derived CD34+ cells; assay: NO production by DAF-FM fluorescence imaging; assay type: cell-based; conditions: for NO generation in response to SDF-1 after PMO treatment / NO-release by SDF-1 in anti-TGFβ-PMO treated cells with inhibitor: diabetic CD34+ cells; for NO generation in response to SDF-1 after PMO treatment / NO-release in response to SDF-1 after PMO pre-treatment: PMO 40 μg/mL; for NO-release in response to SDF-1 after PMO pre-treatment: n=3
Protocol: Human CD34^+ EPCs were incubated overnight with either control-PMO or anti-TGF-β-PMO at a concentration of 40 μg/mL. NO production was quantified in human peripheral blood-derived CD34^+ cells using NO-sensitive cell-permeant fluorescent dye DAF-FM. CD34^+ EPCs were loaded with 20 μM DAF-FM diacetate (Invitrogen) in 500 μl, of DPBS (MediaTech. Inc.) with glucose (1 mg/mL) and L-arginine (1 mM). […] Pharmacological inhibitors were added 30 min before the addition of DAF-FM. […] Cells were washed (4×) and 75 μL of cell suspension was placed in the coverslip-bottomed dish for fluorescence imaging. Fluorescent images were obtained using a computer-controlled monochromator excitation light source (TILL Polychrome II, TILL-Photonics, Martinsried, Germany) and a cooled CCD camera with exposure control (SensiCam, Till-photonics). During excitation at 488 nm with 50 ms of exposure time, emission at 510 nm was collected by the camera at 2×2 binning and images were acquired by Till-Vision software (Till Photonics, Martinsried, Germany). Images were corrected for background and maximum fluorescence intensity in individual cells was quantified in terms of arbitrary fluorescence units using Till-Vision software. Changes in fluorescence with different treatments were expressed as percent change with respect to cells that were used as time/vehicle control i.e. cells received no treatments but loaded with DAF-FM. Up to 75 numbers of cells were imaged per sample/donor and ‘n’ denotes number of donors used.

human CD34+ cells = assay: Survival in the absence of growth factors and later proliferation of CD34+ cells; assay type: cell-based
Protocol: Two discrete cord blood stem cell populations, lin^−CD34^+CD38^+ (FIG. 5A) or lin^−CD34^+CD38^− (FIG. 5B), in addition to lin^−CD34^+ cells from peripheral blood and bone marrow (FIG. 6A) were either treated with PMO containing medium or not. After 5 days, all cells received growth factors (Tpo, SCF, IL-3, IL-6) to detect live, growth factor responsive cells and their proliferative potential after 14 days was determined. By day 14, cells exposed to 20-300 μg/mL of anti-TGF-β-PMO typically formed macro colonies (>100,000 cells) after the addition of growth factors (FIG. 5).
Human cord blood and bone marrow CD34^+ EPCs were purchased from AllCells (Emeryville, Calif.) as positively selected lin^−, magnetic bead-purified frozen cell populations that were >95% CD34^+ cells by FACS analysis. Cells were thawed in a 37° C. water bath, diluted in excess IMDM 10% FBS, pelleted by centrifugation (300×g for 10 min), washed by centrifugation one additional time and, finally, counted using a hemocytometer. Viability, as determined by trypan blue dye exclusion, was routinely >95% after thaw and washes.
Further purification was carried out prior to survival and proliferation studies. Cells were adjusted to 5×10^5/mL in phosphate-buffered saline (PBS) containing 2% (v/v) fetal bovine serum (FBS) and incubated with single murine antibody controls and murine anti-CD34-PE, anti-CD45-PE-Cy5 and anti-CD38-APC. Just prior to cell sorting, propidium iodide (2 μg/mL) was added to detect non-viable cells. CD34^+, CD45^mid cells (HSCs are CD45^mid expressing and can be clearly separated from contaminating lymphocytes, which are CD45^high expressing) and CD38^+/− cells were directly sorted into 96-well round bottom plates (10±2 cells/well) containing IMDM, 10% horse serum, 10% FBS, 100 units/mL of penicillin, 10 μg/mL streptomycin, 20 mM 1-glutamine and 1 μM hydrocortisone±PMOs. At day 5, a hematopoietic growth factor cocktail (Hgf-cocktail) consisting of 20 ng/mL thrombopoietin, 50 ng/mL stem cell factor, 50 ng/mL interleukin-3 and 20 ng/mL interleukin-6, all purchased from PeproTech, N.J., was added to the wells. Cells were followed by daily direct light microscopy (×200) to assess cell proliferation. Cells that proliferated in response to growth factors were scored as cells that survived after the 5-day period in the absence of growth factors. […]
CD34^+ EPCs were isolated from cord blood, human bone marrow and peripheral blood as described above and sorted 10 cells per well in a 96 well plate in either the presence or absence of growth factors and in presence or absence of anti-TGFβ-PMO. […] This incubation period was previously determined by measuring the uptake of fluorescein isothyocyanate (FITC)-labelled PMOs in HSCs.

human CD34+ EPCs = assay: Retinal ischemia-reperfusion injury model, incorporation of injected human CD34+ EPCs; assay type: in vivo, mice; conditions: for repair of acellular capillaries: diabetic CD34+ cells
Protocol: Mice (n=20) were kept under inhalation anaesthesia (isoflurane vapor) during induction of ischemia. The anterior chamber of the eye was cannulated with a 30-gauge needle attached to an infusion line of sterile saline, and the eye was subjected to 2 h of hydrostatic pressure (80-90 mmHg, measured by TonoPen; Medtronic Solan, Jacksonville, Fla.). […] The contralateral eye served as a control.
Seven days after the insult, at which time retinal capillary damage was appreciable,^14,15 the animals were injected intravitreally with isolated human CD34^+ EPCs pre-treated with either […] or control-PMO. After 48 h the animals were euthanized, the eyes were enucleated and the neural retinas were isolated by dissection. The retinas were permeabilized as described above, and reacted with rhodamine-conjugated R. communis agglutinin I. To assess the location of the injected human CD34^+ EPCs, retinas were further incubated with mouse monoclonal anti-human nuclear antigen (Chemicon) followed by secondary staining with FITC-conjugated goat-anti-mouse IgG antibodies (Chemicon). Confocal images of six random fields were taken and fluorescence intensity in each 100 μm^2 was analysed using ImageJ software. Appropriate non-immune antibodies, as well as incubation without primary antibody, were used to determine background and non-specific antibody binding.

CXCR4 = assay: Real-time PCR of CXCR4 mRNA in CD34+ EPCs; assay type: cell-based, human; conditions: normalized to β-actin
Protocol: (§1) Total mRNA from CD34 cells was isolated by using the Total RNA Mini Kit (Bio-Rad, Hercules, Calif.). The mRNA was transcribed by using an iScript cDNA Synthesis Kit (BioRad), and real-time PCR was performed using primers for CXCR4, CXCR7, or beta actin as per manufacturer's instructions (Ambion, Austin, Tex.). Real-time PCR was performed on 7500 Fast Real-Time PCR system for 40 cycles and all reactions were performed in triplicate.

CXCR7 = assay: Real-time PCR of CXCR7 mRNA in CD34+ EPCs; assay type: cell-based, human; conditions: non-diabetic CD34+ cells, P<0.001
Protocol: as §1

[2] = non-diabetic (normal) CD34+ EPCs

Compound | CD14 % of cells (Normal MPB CD34+CD45+) | CD38 % of cells (Normal MPB CD34+CD45+) | CD105 % of cells (Normal MPB CD34+CD45+) | CXCR4 % of cells (Normal MPB CD34+CD45+) | VEGFR-2 % of cells (Normal MPB CD34+CD45+) | CD14 % of cells (Diabetic PB CD34+CD45+) | CD38 % of cells (Diabetic PB CD34+CD45+) | CD105 % of cells (Diabetic PB CD34+CD45+) | CXCR4 % of cells (Diabetic PB CD34+CD45+) | VEGFR-2 % of cells (Diabetic PB CD34+CD45+) | NO generation in response to SDF-1 after PMO treatment ([1]; n=4) | NO-release in response to SDF-1 after PMO pre-treatment ([1]; non-diabetic CD34+ cells) | repair of acellular capillaries (human CD34+ EPCs) | CXCR4 mRNA expression (CXCR4; diabetic CD34+ cells) | CXCR4 mRNA expression (CXCR4; [2]) | further results
anti-TGF-β-PMO: phosphorodiamidate morpholino antisense oligomer, 5′ GAG GGC GGC ATG III GAG GC 3′ (SEQ ID NO: 2), AVI BioPharma sequence ID#0-1-01067 (antisense GAGGGCGGCATGNNNGAGGC; all [PMO-N], the base at N not given here; further chemistry not fully specified) | 73.3 % of cells | 82.3 % of cells | 62.9 % of cells | 85.3 % of cells | 56.5 % of cells | 62.4 % of cells | 94.2 % of cells | 51.7 % of cells | 72.7 % of cells | 62.4 % of cells | 69±7% | 54±4% | robust reparative response | significantly increased | down-regulation | migration to SDF-1 vs control-PMO (CD34+ EPCs; diabetic CD34+ EPCs, P<0.05): enhanced migration; migration to SDF-1 vs control-PMO (CD34+ EPCs; non-diabetic CD34+ EPCs, P<0.01): enhanced migration; numbers of GFP+ HSCs recruited to the laser injury site (murine HSCs): substantial increase; cell survival (human CD34+ cells; 40 μg/mL, compared with other concentrations): greatest cell survival; proliferation vs control-PMO (human CD34+ cells; BM-derived cells): increased proliferation; macro colony size by day 14 after addition of growth factors (human CD34+ cells; cord blood cells, 20-300 μg/mL, growth factors added after 5 days): > 100,000 cells; proliferation vs control-PMO (human CD34+ cells; peripheral blood CD34+ cells from diabetics and age- and sex-matched controls): enhanced proliferation; increase in incorporation of cells to injured retinal capillaries vs control-PMO (human CD34+ EPCs; FITC immunoreactivity per 100 μm^2 area, P<0.001): 2.5 fold; homing to areas of ischemic injury (human CD34+ EPCs; pre-treated EPCs injected intravitreally, vs control-PMO): profound homing; CXCR7 mRNA expression (CXCR7): increased
control-PMO: control morpholino oligomer, 5′ CGTTCTGATAGCTGTACCTC 3′ (SEQ ID NO: 1), AVI BioPharma sequence ID#0-1-0-555 (antisense CGTTCTGATAGCTGTACCTC; all phosphorodiamidate morpholino (PMO)) [reference compound] | 69.3 % of cells | 79.9 % of cells | 71.0 % of cells | 88.5 % of cells | 62.9 % of cells | 59.3 % of cells | 92.2 % of cells | 58.8 % of cells | 74.1 % of cells | 59.3 % of cells | 9.2% | 60±5% | essentially no repair | not changed | increased | 
pertussis toxin |  |  |  |  |  |  |  |  |  |  |  |  |  |  |  | NO-release by SDF-1 in anti-TGFβ-PMO treated cells with inhibitor ([1]; inhibitor 100 ng/mL): 16±3%; NO release by SDF-1 after inhibitor pre-treatment ([1]; non-diabetic CD34+ cells, SDF-1 100 nM, inhibitor 100 ng/ml): 20±9%
SDF-1: the principal stem/progenitor cell homing factor, used as chemotaxis effector and NO release stimulus |  |  |  |  |  |  |  |  |  |  |  |  |  |  |  | increase in NO generation vs time-control ([1]; non-diabetic CD34+ cells, SDF-1 100 nM, n=4): 45±4%
c1cc(CN2CCCNCCNCCCNCC2)ccc1CN1CCCNCCNCCCNCC1 [AMD3100] |  |  |  |  |  |  |  |  |  |  |  |  |  |  |  | NO-release by SDF-1 in anti-TGFβ-PMO treated cells with inhibitor ([1]; inhibitor 10 μM): 28±2%; NO release by SDF-1 after inhibitor pre-treatment ([1]; non-diabetic CD34+ cells, SDF-1 100 nM, inhibitor 10 μM): 3±2%
O=c1cc(N2CCOCC2)oc2c(-c3ccccc3)cccc12 [LY294002] |  |  |  |  |  |  |  |  |  |  |  |  |  |  |  | NO release by SDF-1 after inhibitor pre-treatment ([1]; non-diabetic CD34+ cells, SDF-1 100 nM, inhibitor 20 μM): 12±3%

— patent US8754056B2, “Enhancing vessel lesion homing and repair potential of stem cells” (University of Florida Research Foundation, Inc., priority 2008, dated 2014)
